Laboratory results as given in patent US8741894B2, “Arylsulfonamide CCR3 antagonists” (Axikin Pharmaceuticals, Inc., priority 2010, dated 2014).

What was measured:
[1] = biological target: T1, hERG channel (Homo sapiens, UniProt Q12809); experiment: hERG Receptor Binding Assay (125I-BeKm-1, membranes from HEK-293 cells containing transfected hERG channels); settings: 125I-BeKm-1 0.1 nM final, 1 hr at room temperature
T1 construct: purchased Perkin Elmer RBHERGM400UA; host or cells: HEK-293 cells transfected with hERG (membrane preparation)
Method: Medium throughput screening of compounds for interaction with the human Ether-a-go-go related gene (hERG) was performed by modification of equilibrium dissociation assays using 125I-labelled peptide BeKm-1. BeKm-1, a scorpion toxin from the Central Asian scorpion Buthus eupeus, selectively blocks the hERG channel. Angelo, K., et al., 2003, Pflugers Arch.-Eur. J. Physiol., 447: 55-63; Chiu, P J S, et al., J. Pharmacol. Sci., 2004, 95: 311-319. Isolated membrane preparations from HEK-293 cells containing transfected hERG channels (hERG K+ Channel Membrane Target Systems™; Cat #, RBHERGM400UA) (Perkin Elmer, Boston, Mass.) were suspended in assay buffer A at a final concentration of 1:150 v/v. Compounds for screening, and non-radiolabelled BeKm-1, as well as 125I-BeKm-1 radioligand (Perkin Elmer; Cat #, NEX-412; Specific Activity 2,200 Ci/mmol), were also reconstituted in Buffer A. Assay components were incubated in 96-well, round-bottom polypropylene plates in the following ratio:
25 μl compound at appropriate concentrations
25 μl radiolabelled BeKm-1 at 0.8 nM (final concentration of 0.1 nM)
150 μl membrane preparation
The assay was incubated with shaking for 1 hr at room temperature. Subsequently, the well contents were transferred to 96-well filtration plates (GF/C multiwell plates (MultiScreen™ HTS; Millipore, 290 Concord Road, Billerica, Mass. 01821 USA; Cat# MSFBN6B-XX pre-soaked in 0.3% polyethyleneimine; Acros Organics, NJ; Cat#178571000). Unbound radioactivity was removed and the membranes washed 4 times with ice-cold Buffer B, under vacuum. Plates were air-dried and bound radioactivity counted on a Packard Top-Count NXT™ microplate scintillation and luminescence counter (Packard Instrument Co., Downers Grove, Ill.). Equilibrium dissociation was analyzed and IC50 and/or Ki values were calculated using GraphPad Prism 4™ software (GraphPad Software, San Diego, Calif.).
Assay Buffer A: ([…] (MP Biomedicals, LLC; 29525 Fountain Parkway, Solon Ohio, 441389; Cat #1688449) in water, pH 7.2 with 1M Tris (Fisher Chemicals, Fair Lawn, N.J. 07410; Cat #, BP-1757-500); 100 μM KCl (Fisher Chemicals, Cat #, BP-366-500); 0.1% BSA (Sigma Aldrich, 3050 Spruce Street, St. Louis, Mo. 63103; Cat #, A3059). Assay Buffer B: 20 mM Tris HCl, pH 7.3; 150 mM NaCl (Fisher Chemicals; Cat #, S78449).
The hERG binding assay results are summarized in Table 2, wherein A represents no measured activity (i.e., a value greater than 100 μM), and B represents a value greater than 10 μM but less than 100 μM and C represents a value less than 10 μM.

[2] = biological target: T2, CCR3 receptor (UniProt P51677); experiment: CCR3 Receptor Binding Assay ([125I]-labeled human eotaxin/CCL11 displacement on cells); settings: 0.1 nM [125I]-labeled human eotaxin/CCL11, 60 min at room temperature
T2 sequence (P51677 1-355): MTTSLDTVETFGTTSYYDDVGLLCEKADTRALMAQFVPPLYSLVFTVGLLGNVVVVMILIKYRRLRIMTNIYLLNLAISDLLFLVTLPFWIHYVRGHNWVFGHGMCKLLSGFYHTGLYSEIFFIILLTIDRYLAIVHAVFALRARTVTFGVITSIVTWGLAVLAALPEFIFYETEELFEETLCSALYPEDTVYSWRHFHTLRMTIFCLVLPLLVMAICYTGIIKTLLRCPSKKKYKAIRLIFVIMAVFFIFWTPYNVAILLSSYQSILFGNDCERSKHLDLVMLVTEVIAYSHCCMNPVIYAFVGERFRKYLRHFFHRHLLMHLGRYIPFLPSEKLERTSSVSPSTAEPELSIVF
Method: Cells were washed once with PBS and resuspended in a binding buffer (25 mM HEPES pH 7.6, 5 mM MgCl2, 1 mM CaCl2, 0.5% BSA, 0.1% NaN3). […] of cell suspension (2×10^5 cells/well) and 0.1 nM [^125I]-labeled human eotaxin/CCL11 (2000 Ci/mmol specific activity) were mixed in a 96-well U-bottom polypropylene plate, and incubated for 60 min at room temperature for the binding reaction. The cell suspension was then transferred to a filtration plate (#MAFB, Millipore), and washed 3 times with the binding buffer containing 0.5 M NaCl, scintillant added, and the radioactivity was counted on a TopCount (Packard). For the determination of non-specific binding, the cell suspension and [^125I]-labeled human eotaxin/CCL11 were incubated in the presence of 500 nM of unlabeled human eotaxin/CCL11. See, lino et al., “Molecular cloning and functional characterization of cynomolgus monkey (Macaca fascicularis) CC chemokine receptor, CCR3,” Cytokine 2002, 19, 276-286.
The biological results are summarized in Table 1, wherein A represents a value no greater than 50 nM, and B represents a value greater than 50 nM but no greater than 500 nM, C represents a value greater than 500 nM but no greater than 5 μM; and D represents a value greater than 5 μM.

T1 sequence (Q12809 whole entry): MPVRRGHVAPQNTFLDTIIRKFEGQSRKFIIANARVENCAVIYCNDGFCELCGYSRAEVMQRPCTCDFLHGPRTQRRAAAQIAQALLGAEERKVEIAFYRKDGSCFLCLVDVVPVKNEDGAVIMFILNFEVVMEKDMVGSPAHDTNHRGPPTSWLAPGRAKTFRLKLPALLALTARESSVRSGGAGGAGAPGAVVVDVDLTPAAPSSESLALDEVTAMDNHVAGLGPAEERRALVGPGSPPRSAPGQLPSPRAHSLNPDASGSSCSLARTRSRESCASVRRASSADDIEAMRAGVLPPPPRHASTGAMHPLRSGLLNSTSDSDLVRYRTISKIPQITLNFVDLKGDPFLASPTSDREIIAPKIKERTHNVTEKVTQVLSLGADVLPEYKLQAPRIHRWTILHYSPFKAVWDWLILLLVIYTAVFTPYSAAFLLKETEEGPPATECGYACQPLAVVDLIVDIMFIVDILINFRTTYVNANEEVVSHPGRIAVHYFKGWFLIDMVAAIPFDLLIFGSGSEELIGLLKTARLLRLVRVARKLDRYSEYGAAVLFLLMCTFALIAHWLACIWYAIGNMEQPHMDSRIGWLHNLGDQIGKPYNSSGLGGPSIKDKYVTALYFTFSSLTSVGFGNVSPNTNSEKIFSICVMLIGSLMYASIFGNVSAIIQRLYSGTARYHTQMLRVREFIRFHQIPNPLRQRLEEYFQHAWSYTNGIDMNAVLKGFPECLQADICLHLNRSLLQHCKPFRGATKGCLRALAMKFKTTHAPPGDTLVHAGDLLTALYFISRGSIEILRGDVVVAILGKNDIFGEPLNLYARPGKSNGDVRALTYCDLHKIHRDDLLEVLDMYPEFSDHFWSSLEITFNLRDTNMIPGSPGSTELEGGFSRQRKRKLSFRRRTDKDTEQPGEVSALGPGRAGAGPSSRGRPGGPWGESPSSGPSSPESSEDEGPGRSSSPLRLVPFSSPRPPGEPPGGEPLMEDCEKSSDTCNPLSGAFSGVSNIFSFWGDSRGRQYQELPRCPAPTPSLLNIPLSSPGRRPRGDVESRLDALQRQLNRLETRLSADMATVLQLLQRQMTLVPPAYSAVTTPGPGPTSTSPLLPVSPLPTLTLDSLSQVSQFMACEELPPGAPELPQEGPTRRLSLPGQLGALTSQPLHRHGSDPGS

| Ki [2] | SMILES | Ki [1] |
| --- | --- | --- |
|  | CC(=O)NC1CCN(S(=O)(=O)c2cc(C#N)ccc2Oc2cc(Cl)cc(Cl)c2)CC1 [Compound 5, N-(1-(5-cyano-2-(3,5-dichlorophenoxy)phenylsulfonyl)piperidin-4-yl)acetamide] | > 100 µM |
|  | N#Cc1ccc(Oc2cc(Cl)cc(Cl)c2)c(S(=O)(=O)N2CCC(NC(=O)CCCCl)CC2)c1 [Compound 8, 4-chloro-N-(1-(5-cyano-2-(3,5-dichlorophenoxy)phenylsulfonyl)piperidin-4-yl)butanamide] | > 100 µM |
|  | Cc1ccc(C(=O)NC2CCN(S(=O)(=O)c3cc(C#N)ccc3Oc3cc(Cl)cc(Cl)c3)CC2)cc1 [Compound 10, N-(1-(5-cyano-2-(3,5-dichlorophenoxy)phenylsulfonyl)piperidin-4-yl)-4-methylbenzamide] | > 100 µM |
|  | N#Cc1ccc(Oc2cc(Cl)cc(Cl)c2)c(S(=O)(=O)N2CCC(NC(=O)c3cccc(F)c3)CC2)c1 [Compound 11, N-(1-(5-cyano-2-(3,5-dichlorophenoxy)phenylsulfonyl)piperidin-4-yl)-3-fluorobenzamide] | > 100 µM |
|  | CC(C)NC(=O)NC1CCN(S(=O)(=O)c2cc(C#N)ccc2Oc2cc(Cl)cc(Cl)c2)CC1 [Compound 12, 1-(1-(5-cyano-2-(3,5-dichlorophenoxy)phenylsulfonyl)piperidin-4-yl)-3-isopropylurea] | > 100 µM |
|  | C=CCNC(=O)NC1CCN(S(=O)(=O)c2cc(C#N)ccc2Oc2cc(Cl)cc(Cl)c2)CC1 [Compound 13, 1-allyl-3-(1-(5-cyano-2-(3,5-dichlorophenoxy)phenylsulfonyl)piperidin-4-yl)urea] | > 100 µM |
|  | N#Cc1ccc(Oc2cc(Cl)cc(Cl)c2)c(S(=O)(=O)N2CCC(NC(=O)NCc3ccco3)CC2)c1 [Compound 16, 1-(1-(5-cyano-2-(3,5-dichlorophenoxy)phenylsulfonyl)piperidin-4-yl)-3-(furan-2-ylmethyl)urea] | > 100 µM |
|  | CC(C)NC(=S)NC1CCN(S(=O)(=O)c2cc(C#N)ccc2Oc2cc(Cl)cc(Cl)c2)CC1 [Compound 17, 1-(1-(5-cyano-2-(3,5-dichlorophenoxy)phenylsulfonyl)piperidin-4-yl)-3-isopropylthiourea] | > 100 µM |
|  | CSCCCNC(=S)NC1CCN(S(=O)(=O)c2cc(C#N)ccc2Oc2cc(Cl)cc(Cl)c2)CC1 [Compound 18, 1-(1-(5-cyano-2-(3,5-dichlorophenoxy)phenylsulfonyl)piperidin-4-yl)-3-(3-(methylthio)propyl)thiourea] | > 100 µM |
| ≤ 0.05 µM | N#Cc1ccc(Oc2cc(Cl)cc(Cl)c2)c(S(=O)(=O)N2CCC(NC(=O)NCCN3CCOCC3)CC2)c1 [Compound 22, 1-(1-(5-cyano-2-(3,5-dichlorophenoxy)phenylsulfonyl)piperidin-4-yl)-3-(2-morpholinoethyl)urea] |  |
| 0.5 to 5 µM | Cc1cc(C)cc(Sc2ccc(C#N)cc2S(=O)(=O)NC2CCN(C(=O)OC(C)(C)C)CC2)c1 [Compound 23] |  |
| > 5 µM | Cc1ccc(S(=O)(=O)N2CCC(NS(=O)(=O)c3cc(C#N)ccc3Oc3cc(C)cc(C)c3)CC2)cc1 [Compound 31, 5-cyano-2-(3,5-dimethylphenoxy)-N-(1-tosylpiperidin-4-yl)benzenesulfonamide] |  |
| > 5 µM | N#Cc1ccc(Oc2cc(Cl)cc(Cl)c2)c(S(=O)(=O)NC2CCN(S(=O)(=O)c3cccc(F)c3)CC2)c1 [Compound 32, 5-cyano-2-(3,5-dichlorophenoxy)-N-(1-(3-fluorophenylsulfonyl)piperidin-4-yl)benzenesulfonamide] |  |
| > 5 µM | N#Cc1ccc(Oc2cc(Cl)cc(Cl)c2)c(S(=O)(=O)NC2CCN(C(=O)c3ccc(C(F)(F)F)cc3)CC2)c1 [Compound 34] |  |
| > 5 µM | N#Cc1ccc(Oc2cc(Cl)cc(Cl)c2)c(S(=O)(=O)NC2CCN(C(=O)c3ccccc3)CC2)c1 [Compound 35] |  |
| > 5 µM | Cc1cc(C)cc(Oc2ccc(C#N)cc2S(=O)(=O)NC2CCN(S(C)(=O)=O)CC2)c1 [Compound 37] |  |
| > 5 µM | CC(C)C(=O)N1CCC(NS(=O)(=O)c2cc(C#N)ccc2Oc2cc(Cl)cc(Cl)c2)CC1 [Compound 39] |  |
| 0.05 to 0.5 µM | N#Cc1ccc(Oc2cc(Cl)cc(Cl)c2)c(S(=O)(=O)NC2CCN(C(=O)Nc3cccc(F)c3)CC2)c1 [Compound 44] |  |
| 0.5 to 5 µM | CC(C)(C)OC(=O)N1CCC(NS(=O)(=O)c2cc(C#N)ccc2Sc2cc(Cl)cc(Cl)c2)CC1 [Compound 45] |  |
| ≤ 0.05 µM | N#Cc1ccc(Oc2cc(Cl)cc(Cl)c2)c(S(=O)(=O)N2CCC(NC(=O)NCCN3CCSCC3)CC2)c1 [Compound 47, 1-(1-(5-cyano-2-(3,5-dichlorophenoxy)phenylsulfonyl)piperidin-4-yl)-3-(2-thiomorpholinoethyl)urea] |  |
| ≤ 0.05 µM | N#Cc1ccc(Oc2cc(Cl)cc(Cl)c2)c(S(=O)(=O)N2CCC(NC(=O)NCCN3CCCCC3)CC2)c1 [Compound 48, 1-(1-(5-cyano-2-(3,5-dichlorophenoxy)phenylsulfonyl)piperidin-4-yl)-3-(2-(piperidin-1-yl)ethyl)urea] |  |
| ≤ 0.05 µM | N#Cc1ccc(Oc2cc(Cl)cc(Cl)c2)c(S(=O)(=O)N2CCC(NC(=O)NCCN3CCNCC3)CC2)c1 [Compound 49, 1-(1-(5-cyano-2-(3,5-dichlorophenoxy)phenylsulfonyl)piperidin-4-yl)-3-(2-(piperazin-1-yl)ethyl)urea] |  |
| ≤ 0.05 µM | N#Cc1ccc(Oc2cc(Cl)cc(Cl)c2)c(S(=O)(=O)N2CCC(NC(=O)NCCN3CCC(F)CC3)CC2)c1 [Compound 50, 1-(1-(5-cyano-2-(3,5-dichlorophenoxy)phenylsulfonyl)piperidin-4-yl)-3-(2-(4-fluoropiperidin-1-yl)ethyl)urea] |  |
| ≤ 0.05 µM | CN1CCN(CCNC(=O)NC2CCN(S(=O)(=O)c3cc(C#N)ccc3Oc3cc(Cl)cc(Cl)c3)CC2)CC1 [Compound 51, 1-(1-(5-cyano-2-(3,5-dichlorophenoxy)phenylsulfonyl)piperidin-4-yl)-3-(2-(4-methylpiperazin-1-yl)ethyl)urea] |  |
| ≤ 0.05 µM | [2H]c1c([2H])c(Oc2cc(Cl)cc(Cl)c2)c(S(=O)(=O)N2CCC(NC(=O)NCC=C)CC2)c([2H])c1C#N [Compound 53, 1-allyl-3-(1-(5-cyano-3,4,6-trideutero-2-(3,5-dichlorophenoxy)phenylsulfonyl)piperidin-4-yl)urea] |  |
| ≤ 0.05 µM | [2H]c1c([2H])c(Oc2cc(Cl)cc(Cl)c2)c(S(=O)(=O)N2CCC(NC(=O)NCCN3C([2H])([2H])C([2H])([2H])OC([2H])([2H])C3([2H])[2H])CC2)c([2H])c1C#N [Compound 54, 1-(1-(5-cyano-3,4,6-trideutero-2-(3,5-dichlorophenoxy)phenylsulfonyl)piperidin-4-yl)-3-(2-(2,2,3,3,5,5,6,6-octadeutero-morpholino)ethyl)urea] |  |
